Source: patent US11554171B2, “Compounds and methods for the targeted degradation of bromodomain-containing proteins” (Arvinas Operations, Inc., priority 2015, dated 2023)

System: c-myc in 22RV-1 cells
Experiment: Human c-myc ELISA assay
Assay type: cell-based
Settings: Homo sapiens; for Emax: 22Rv1, 18 h, read-out: Degradation of BRD4: Maximum inhibition (%) c-Myc ELISA in 22RV1 cells; for DC50: 22Rv1, read-out: Degradation of BRD4: DC50 (uM) c-Myc ELISA in 22RV1 cells
Protocol: 22RV-1 cells are seeded at 30,000 cells/well at a volume of 75 μL/well in RPMI+10% FBS media in 96-well plates and grown overnight at 37 C. Cells are dosed with compounds at 4× concentration diluted in 0.4% DMSO; compounds are serially diluted 1:3 for 8-point dose curve. 25 ul of compounds is added to cells for a final concentration starting at 300 nM-0.3 nM or 1 uM-1 nM in 0.1% DMSO and incubated for 18 hrs. Media is aspirated, cells washed 1× with PBS and aspirated. Cells are lysed in 50 ul RIPA buffer (50 mM Tris pH8, 150 mM NaCl, 1% Tx-100, 0.1% SDS, 0.5% sodium deoxycholate) supplemented with protease and phosphatase inhibitors. Plates are incubated on ice for 15 minutes then centrifuged at 4 C for 10 min at 4000 rpm. Add 50 ul of cleared lysate from 96-well assay plate into 96-well c-myc ELISA plate (Novex, Life Technologies Catalog #KH02041). Reconstitute c-myc standard with standard diluent buffer; standard curve range is 333 pg/ml-0 pg/ml, diluted 1:2 for 8-point dose curve. The rest of the assay was performed following the protocol from the c-myc ELISA kit. Data is analyzed and plotted using GraphPad Prism software. Compounds described in this application were assayed and c-myc suppression potency is listed in the following Table (A: DC50<10 nM; B: DC50 10-100 nM; C: DC50: 100-1000 nM; D: DC50>1000 nM)

| Compound | Emax [%] | DC50 [µM] |
| --- | --- | --- |
| Cc1ncsc1-c1ccc([C@H](C)NC(=O)[C@H]2C[C@H](O)CN2C(=O)[C@@H](NC(=O)c2cc3cc(O[C@H]4C[C@@H](NC(=O)C[C@@H]5N=C(c6ccc(Cl)cc6)c6c(sc(C)c6C)-n6c(C)nnc65)C4)ccc3o2)C(C)(C)C)cc1 [Example 332] | 61 | 0.1 to 1 |
| Cc1ncsc1-c1ccc(CNC(=O)[C@@H]2C[C@@H](O)CN2C(=O)[C@@H](c2cc(OCCCCCNC(=O)C[C@@H]3N=C(c4ccc(Cl)cc4)c4c(sc(C)c4C)-n4c(C)nnc43)no2)C(C)C)cc1 [Example 121] | 98.5 | < 0.01 |
| Cc1ncsc1-c1ccc([C@@H](CO)NC(=O)[C@@H]2C[C@@H](O)CN2C(=O)[C@@H](NC(=O)CN2CCC(O[C@H]3C[C@H](NC(=O)C[C@@H]4N=C(c5ccc(Cl)cc5)c5c(sc(C)c5C)-n5c(C)nnc54)C3)CC2)C(C)(C)C)cc1 [Example 352, (2S,4R)-1-[(2S)-3,3-dimethyl-2-(2-{4-[(1,3-trans)-3-{2-[(9S)-7-(4-chlorophenyl)-4,5,13-trimethyl-3-thia-1,8,11,12-tetraazatricyclo[8.3.0.0^2,^6]trideca-2(6),4,7,10,12-pentaen-9-yl]acetamido}cyclobutoxy]piperidin-1-yl}acetamido)butanoyl]-4-hydroxy-N-[(1S)-2-hydroxy-1-[4-(4-methyl-1,3-thiazol-5-yl)phenyl]ethyl]pyrrolidine-2-carboxamide] | < 20 | > 1 |
| Cc1ncsc1-c1ccc(CNC(=O)[C@@H]2C[C@@H](O)CN2C(=O)[C@@H](NC(=O)COCCCCCCNC(=O)C[C@@H]2N=C(c3ccc(Cl)cc3)c3c(sc(C)c3C)-n3c(C)nnc32)C(C)(C)C)cc1 [Example 82] | 100 | 0.01 to 0.1 |
| Cc1ncoc1-c1ccc(CNC(=O)[C@@H]2C[C@@H](O)CN2C(=O)[C@@H](NC(=O)COCCCOCCNC(=O)C[C@@H]2N=C(c3ccc(Cl)cc3)c3c(sc(C)c3C)-n3c(C)nnc32)C(C)(C)C)cc1 [Example 74] | 97 | 0.01 to 0.1 |
| Cc1ncsc1-c1ccc(CNC(=O)[C@@H]2C[C@@H](O)CN2C(=O)[C@@H](NC(=O)CCN2CCN(CCCNC(=O)C[C@@H]3N=C(c4ccc(Cl)cc4)c4c(sc(C)c4C)-n4c(C)nnc43)CC2)C(C)(C)C)cc1 [Example 102] | 34.5 | > 1 |
| Cc1sc2c(c1C)C(c1ccc(Cl)cc1)=N[C@@H](CC(=O)N[C@H]1C[C@H](Oc3ccc(CC(=O)N[C@H](C(=O)N4C[C@H](O)C[C@H]4C(=O)N[C@@H](C)c4ccc(-c5ncon5)cc4)C(C)(C)C)cc3)C1)c1nnc(C)n1-2 [Example 281] | 91.4 | 0.01 to 0.1 |
| Cc1sc2c(c1C)C(c1ccc(Cl)cc1)=N[C@@H](CC(=O)N[C@H]1C[C@H](Oc3ccc(CC(=O)N[C@H](C(=O)N4C[C@H](O)C[C@H]4C(=O)N[C@@H](C)c4ccc(C(=O)N5CCC5)cc4)C(C)(C)C)cc3)C1)c1nnc(C)n1-2 [Example 282] | 25.4 | > 1 |
| Cc1ncsc1-c1ccc([C@H](C)NC(=O)[C@@H]2C[C@@H](O)CN2C(=O)[C@@H](NC(=O)COc2nccc(N3CCN(C(=O)C[C@@H]4N=C(c5ccc(Cl)cc5)c5c(sc(C)c5C)-n5c(C)nnc54)CC3)n2)C(C)(C)C)cc1 [Example 331] | 81.5 | 0.1 to 1 |
| Cc1ncsc1-c1ccc([C@H](C)NC(=O)[C@@H]2C[C@@H](O)CN2C(=O)[C@H](C(C)C)n2cc(-c3ccnc(O[C@H]4C[C@@H](NC(=O)C[C@@H]5N=C(c6ccc(Cl)cc6)c6c(sc(C)c6C)-n6c(C)nnc65)C4)c3)cn2)cc1 [Example 219, (2S,4R)-4-hydroxy-N-[(1S)-1-[4-(4-methyl-1,3-thiazol-5-yl)phenyl]ethyl]-1-[(2S)-3-methyl-2-(4-{2-[(1,3-cis)-3-{2-[(9S)-7-(4-chlorophenyl)-4,5,13-trimethyl-3-thia-1,8,11,12-tetraazatricyclo[8.3.0.0^2,^6]trideca-2(6),4,7,10,12-pentaen-9-yl]acetamido}cyclobutoxy]pyridin-4-yl}-1H-pyrazol-1-yl)butanoyl]pyrrolidine-2-carboxamide] | 95.5 | < 0.01 |
| Cc1ncsc1-c1ccc([C@H](C)NC(=O)[C@@H]2C[C@@H](O)CN2C(=O)[C@@H](NC(=O)[C@@H]2CC[C@H](COCCCNC(=O)C[C@@H]3N=C(c4ccc(Cl)cc4)c4c(sc(C)c4C)-n4c(C)nnc43)O2)C(C)(C)C)cc1 [Example 186] | 94.5 | 0.01 to 0.1 |
| Cc1ncsc1-c1ccc([C@H](C)NC(=O)[C@@H]2C[C@@H](O)CN2C(=O)[C@@H](NC(=O)/C=C/c2cc(O[C@H](C)CNC(=O)C[C@@H]3N=C(c4ccc(Cl)cc4)c4c(sc(C)c4C)-n4c(C)nnc43)ccc2F)C(C)(C)C)cc1 [Example 197] | 91.5 | < 0.01 |
| Cc1ncsc1-c1ccc(CNC(=O)[C@@H]2C[C@@H](O)CN2C(=O)[C@@H](NC(=O)COCCOCCOCCOc2ccc(NC(=O)C[C@@H]3N=C(c4ccc(Cl)cc4)c4c(sc(C)c4C)-n4c(C)nnc43)cc2)C(C)(C)C)cc1 [Example 11] | 99.5 | 0.01 to 0.1 |
| Cc1ncsc1-c1ccc([C@H](C)NC(=O)[C@@H]2C[C@@H](O)CN2C(=O)[C@@H](C(C)C)n2cc(-c3cc(O[C@H]4C[C@H](NC(=O)C[C@@H]5N=C(c6ccc(Cl)cc6)c6c(sc(C)c6C)-n6c(C)nnc65)C4)ccn3)cn2)cc1 [Example 305] | 6.7 | > 1 |
| Cc1ncsc1-c1ccc([C@H](C)NC(=O)[C@@H]2C[C@@H](O)CN2C(=O)[C@@H](NC(=O)COCCCN2CCN(C(=O)C[C@@H]3N=C(c4ccc(Cl)cc4)c4c(sc(C)c4C)-n4c(C)nnc43)CC2)C(C)(C)C)cc1 [Example 313] | 87.5 | 0.01 to 0.1 |
| Cc1ncsc1-c1ccc(CNC(=O)[C@@H]2C[C@@H](O)CN2C(=O)[C@@H](NC(=O)COCCC(=O)N2CC[C@H](NC(=O)C[C@@H]3N=C(c4ccc(Cl)cc4)c4c(sc(C)c4C)-n4c(C)nnc43)C2)C(C)(C)C)cc1 [Example 88] | 85.9 | 0.1 to 1 |
| Cc1sc2c(c1C)C(c1ccc(Cl)cc1)=N[C@@H](CC(=O)N[C@H]1C[C@@H](Oc3ccc(OCC(=O)N[C@H](C(=O)N4C[C@H](O)C[C@H]4C(=O)N[C@@H](C)c4ccc(-c5nccn5C)cc4)C(C)(C)C)cn3)C1)c1nnc(C)n1-2 [Example 260] | 13 | > 1 |
| Cc1ncsc1-c1ccc(CNC(=O)[C@@H]2C[C@@H](O)CN2C(=O)[C@@H](c2cc(OCCN3CC[C@@H](NC(=O)C[C@@H]4N=C(c5ccc(Cl)cc5)c5c(sc(C)c5C)-n5c(C)nnc54)C3)no2)C(C)C)cc1 (single isomer, unassigned) [Example 312] | 87.5 | < 0.01 |
| Cc1ncsc1-c1ccc([C@H](C)NC(=O)[C@@H]2C[C@@H](O)CN2C(=O)[C@@H](NC(=O)COc2ccnc(N3CCN(C(=O)C[C@@H]4N=C(c5ccc(Cl)cc5)c5c(sc(C)c5C)-n5c(C)nnc54)CC3)n2)C(C)(C)C)cc1 [Example 330] | 89 | 0.01 to 0.1 |
| Cc1ncsc1-c1ccc(CNC(=O)[C@@H]2C[C@@H](O)CN2C(=O)[C@H](c2cc(OCCO[C@H]3C[C@@H](NC(=O)C[C@@H]4N=C(c5ccc(Cl)cc5)c5c(sc(C)c5C)-n5c(C)nnc54)C3)no2)C(C)C)cc1 [Example 316] | 71.4 | 0.01 to 0.1 |
